Columns and labels:
MOLT-4 cells [1] = assay: Light and transmission electron microscopy of apoptosis; assay type: cell-based, Human
Description: Cell culture and treatment: Human T lymphoblast; acute lymphoblastic leukemia line MOLT-4 was procured from NCCS, Pune, India. The cells were cultured in RPMI-1640 medium supplemented with 10% FCS, 100 units penicillin and 100 µg streptomycin per ml. Cells were grown in CO2 incubator (SHEL-LAB, USA) at 37° C, 90% humidity and 5% CO2 gas environment and were treated during sub-confluent stage with Compound 3f dissolved in DMSO at the concentration of 1, 5 and 10µM while control cells received only the vehicle (DMSO < 0.5%).
Light and Transmission Electron Microscopy: MOLT-4 control, Compound 3f treated cells at different time intervals were washed in phosphate buffered saline, centrifuged at 1500 rpm for ten minutes and the pellets were divided into 1mm^3 pieces and fixed immediately in 2.5% glutaraldehyde in 0.1M phosphate buffer (pH 7.2) for 2 hr at 4°C, post-fixed with 1% OsO4 in the same buffer for 2 hr, dehydrated with acetone, cleared in propylene oxide and embedded in Epon-812^6 [Hayat, M. A. (1981) Principles and Techniques of Electron Microscopy. Biological Applications Vol. 1. Edward Arnold Publishers, London, U.K.] Semithin (1µm) sections were cut, stained with toluidine blue and studied under Olympus Research Microscope (VANOX). The photography was done using Olympus Digital Camera (C4000).
Ultrathin sections of silver colour (60-90 nm) were cut on a LKB ultramicrotome (Ultrotome-IV, mounted on copper grids and stained with uranyl acetate and lead citrate. The sections were viewed and photographed in a JEOL-100CXII electron microscope at 60 kV.
Detection of apoptosis in tissue sections. Cell Tissue Res. 301: 19-31] at different time intervals to study the mechanism of cell death. […] Compound 3f treated MOLT-4 cells, the condensation of the nuclear material, with a marked accumulation of densely stained chromatin was seen. In majority of the treated cells the chromatin was seen typically at the edge of the nucleus. This was accompanied by cell shrinkage and cytoplasmic vacuoles. The disintegration of the nucleus into smaller fragments was also seen (Fig. 7B). […]

caspase-3 = assay: Caspase-3 colorimetric assay in MOLT-4 cells; assay type: cell-based, Human; conditions: 5 µg/ml, 12 hrs
Description: Caspase 3 activity was measured by using caspase-3 colorimetric Assay kit (R&D Systems USA). […] Cell lysates were mixed with 10µL of dithiothreitol (DTT) and 50µL reaction buffer (2X) containing 5 µL DEVD-pNA, a caspase-3 substrate, and incubated upto 24 hr at 37°C. Additional controls were included in this assay containing no cell lysate without substrate Enzyme-catalyzed release of pNA was monitored using a microplate reader at 405 nm (Fig. 2). Likewise, Caspase 6 activity was also measured using caspase-6 colorimetric Assay kit (R&D Systems USA). However, the enzyme and enzyme substrate (VEID-pNA) were different (Fig. 3). Treatment of the cells with Compound 3f induced caspase-3/6 activities. […] (Fig 2).

S-180 cells = assay: 3H-thymidine and 3H-uridine incorporation in vitro (DNA and RNA synthesis)
[2] = tested on: Ehrlich ascites carcinoma (EAC); assay: In vivo anticancer activity: increase in median survival time; set-up: species or system Swiss albino male mice; conditions: 60 mg/kg i.p., 7 injns., days 1-7
MOLT-4 cells [3] = assay: Annexin V-FITC/PI flow cytometric analysis of apoptosis; assay type: cell-based, Human; conditions: 6 hrs
Description: Events of apoptosis were analyzed using Annexin V-FITC Apoptosis Detection Kit (A 2214 Sigma Aldrich, USA). Human leukemia Cells (MOLT-4, 1x10^6 cells/ml) in 6-well plate were treated with Compound 3f (3 and 5µg/ml), camptothecin (5µM) and incubated for 6 hrs. After incubation, the cells were centrifuged, rinsed with PBS twice and re-suspended in binding buffer (10 mM HEPES/NaOH, pH 7.5 containing 0.14M NaCl and 25 mM CaCl2). An aliquot (500 µl) of suspension was stained with of Annexin V-FITC (5 µl) and Propidium Iodide (10 µl). The cells were stored for 10 minutes at room temperature in the dark and then analyzed by BD-LSR flow cytometer (Becton Dickinson, USA) at two wavelengths to measure fluorescence for of Annexin V & PI binding at 515 and 639 nm.

`O=C1c2cccc3c([N+](=O)[O-])ccc(c23)C(=O)N1CCCCl` [Compound 3f, 6-Nitro-2-[3-(Chloropropyl)]-1H-benz[de]isoquinoline-1,3-dione] was tested, and the “apoptotic cells by light microscopy” value (MOLT-4 cells [1]; 1µM) was “no apoptotic cells were observed”, the “apoptotic cells by light microscopy” value (MOLT-4 cells [1]; 5µM, 24 - 48 hr) was “only a-few apoptotic cells were observed” and the “apoptotic cells by light microscopy” value (MOLT-4 cells [1]; 10µM, 36 hrs) was “seen in majority of cells”. The Caspase-3 activity (caspase-3) was “maximum at 5 µg/ml at 12 hrs”, the inhibition at 8 µM (S-180 cells; Mus musculus, S-180, read-out: DNA synthesis inhibition (3H-thymidine uptake)) was 90% and the “RNA synthesis inhibition (3H-uridine uptake)” value (S-180 cells; S-180 cells, 8 µM, 1 hr incubation, with respect to control) was 80%. The “MST” value [2] was 34.0 days, the “late apoptotic cells (Annexin V^+/PI^+)” value (MOLT-4 cells [3]; 3 µg/ml) was 1.05% and the total apoptotic cells (MOLT-4 cells [3]; 3 µg/ml) was 7.43%. For the same compound, the “late apoptotic cells (Annexin V^+/PI^+)” value (MOLT-4 cells [3]; 5 µg/ml) was 4.82% and the total apoptotic cells (MOLT-4 cells [3]; 5 µg/ml) was 18.44%.
